According to ChEMBL document CHEMBL3885861, “Open TG-GATES”:

Species: Rattus norvegicus
Assay: Open TG-GATES - Regimen: Daily Repeat
Type: toxicity, organism-based, Sprague-Dawley
Parameters: regimen Daily Repeat, gender Male, age 6 weeks
Conditions: in vivo, po, 0 mg/kg, […], route gavage, dose level Control; for KIDNEY_L / KIDNEY_R / KIDNEY_TOTAL: tissue Kidney; for LIVER: tissue Liver; for A/G / ALP / ALT / AST / BUN / CRE / Ca / Cl / DBIL / GLC / IP / K / LDH / Na / PL / RALB / TBIL / TC / TG / TP / gamma-GTP: tissue Plasma

## CC1=C(/C=C/C(C)=C/C=C/C(C)=C/CO)C(C)(C)CCC1 [RETINOL]
Tissue Blood, time 28 day
  Lym: 83.8%
  MCH: 19.5 pg
  MCHC: 35.5%
  MCV: 54.8 fL
  Mono: 1.6%
  Neu: 12.6%
  PT: 15.8 s
  Plat: 113.8 x10_4/uL
  RBC: 778.2 x10_4/ul
  Ret: 2.6%
  WBC: 112.5 x10_2/uL
Time 7 day
  KIDNEY_L: 1.1 g
  KIDNEY_R: 1.1 g
  KIDNEY_TOTAL: 2.2 g
  LIVER: 12.5 g
  A/G: 1.3
  ALP: 1920 IU/L
  ALT: 39.6 IU/L
  AST: 67.6 IU/L
  BUN: 17.4 mg/dL
  CRE: 0.2 mg/dL
  Ca: 10.7 mg/dL
  Cl: 106.4 meq/L
  DBIL: 0 mg/dL
  GLC: 189 mg/dL
  IP: 6.2 mg/dL
  K: 4.4 meq/L
  LDH: 219.6 IU/L
  Na: 142 meq/L
  PL: 145.2 mg/dL
  RALB: 3.2 g/dL
  TBIL: 0.002 mg/dL
  TC: 74 mg/dL
  TG: 109.6 mg/dL
  TP: 5.6 g/dL
  gamma-GTP: 1.2 IU/L
Time 14 day
  KIDNEY_L: 1.2 g
  KIDNEY_R: 1.2 g
  KIDNEY_TOTAL: 2.4 g
  LIVER: 13.8 g
  A/G: 1.3
  ALP: 1383 IU/L
  ALT: 34.6 IU/L
  AST: 64.6 IU/L
  BUN: 17.4 mg/dL
  CRE: 0.2 mg/dL
  Ca: 10.8 mg/dL
  Cl: 106 meq/L
  DBIL: 0 mg/dL
  GLC: 201.8 mg/dL
  IP: 6.1 mg/dL
  K: 4.2 meq/L
  LDH: 226.8 IU/L
  Na: 142 meq/L
  PL: 152 mg/dL
  RALB: 3.2 g/dL
  TBIL: 0.004 mg/dL
  TC: 74.8 mg/dL
  TG: 103 mg/dL
  TP: 5.9 g/dL
  gamma-GTP: 1.2 IU/L
Time 28 day
  KIDNEY_L: 1.4 g
  KIDNEY_R: 1.4 g
  KIDNEY_TOTAL: 2.7 g
  LIVER: 15.6 g
  A/G: 1.2
  ALP: 1062.8 IU/L
  ALT: 43.4 IU/L
  AST: 65.4 IU/L
  BUN: 16.8 mg/dL
  CRE: 0.2 mg/dL
  Ca: 10.6 mg/dL
  Cl: 106 meq/L
  DBIL: 0 mg/dL
  GLC: 194 mg/dL
  IP: 6.3 mg/dL
  K: 4 meq/L
  LDH: 145.6 IU/L
  Na: 141.2 meq/L
  PL: 147 mg/dL
  RALB: 3.3 g/dL
  TBIL: 0.026 mg/dL
  TC: 78 mg/dL
  TG: 100.8 mg/dL
  TP: 6.1 g/dL
  gamma-GTP: 1.2 IU/L
